Results on 1 molecule are retold here after patent US7354711B2, “Methods for inhibiting immunostimulatory DNA associated responses” (University of Iowa Research Foundation, priority 1997, dated 2008).

SMILES strings stand for the structures.

Experiment [1] has as its system multi-drug resistance pump. Description: Potency with inhibition of the multi-drug resistance pump. The format is cell-based.
Experiment [2] deals with WEHI 231 cells. The settings on record: 0.1 μM quinacrine.
Procedure: Unless otherwise noted, cell culture conditions were as follows. WEHI 231 cells (ATTC #CRL 1702) were grown in log phase in a medium of RPMI 1640 supplemented with 10% fetal bovine serum (heat inactivated at 65° C. for one hour), 0.3 grams/Liter of L-glutamine, 50 milligrams/Liter gentamycin, and 0.05 mM 2-mercaptoethanol in a 37° C. humid atmosphere with 5% CO2. WEHI 231 cells were diluted with 0.4% trypan blue in phosphate-buffered saline (PBS) and live cells were counted in a hemocytometer chamber. Cells were resuspended in medium at 2×10^5/milliliter in 24-well tissue culture plates (Costar, Cambridge Mass.). Appropriate additions were made, and the cells were incubated and counted daily. WEHI 231 cells were diluted with fresh medium if the concentration exceeded 7×10^5/milliliter.
Referring to the experiments summarized in FIG. 2a, WEHI 231 cells (2×10^5 per milliliter) were incubated with or without 6 μgrams/milliliter ODN 1760, 10 μgrams/milliliter α-sIgM, or 0.1 μM quinacrine as indicated. Live cells were counted daily. The cells were diluted in medium if their concentration exceeded 7×10^5 per milliliter.
Experiment [3] concerns human peripheral blood mononuclear cells (PBMC). Put plainly: ODN 1760-induced IL-6 production in human peripheral blood mononuclear cells. The format is cell-based. Particulars: 24 hours. Here is the method:
Referring to the experiments summarized in FIG. 9, human peripheral blood mononuclear cells (PBMC) from three donors were incubated with or without ODN 1760 and the indicated concentration of test compound. After 24 hours, the concentration of IL-6 was determined in the supernatant. The figure indicates the percentage of IL-6 in reference to ODN-treated cells. The IL-6 amounts for control sample per donor were as follows: donor 1, 203 picograms/milliliter; donor 2, 71.5 picograms/milliliter; donor 3, 465 picograms/milliliter. IL-6 measured from untreated cells was 0-21 picograms/milliliter. Results from the three donors were averaged, and error bars indicate 1 standard deviation.

For experiment [4], the system named is WEHI 231 cells. Description: Protection by ODN against thapsigargin-induced DNA fragmentation. Particulars: 0.1 μM quinacrine, 10 nM thapsigargin, 24 hours. The format is cell-based, mouse. Here is the method: The DNA fragmentation assay was carried out generally as follows. WEHI 231 cells were incubated with 0.5 μCi/milliliter [^3H] thymidine for 3 hours, centrifuged, resuspended in 2 milliliters of fresh medium at 2×10^5/milliliter, and incubated in a 24-well plate with additions as indicated. After incubation for 16-18 hours, 1 milliliter aliquots of the cells were centrifuged, washed with 200 μliters PBS. This suspension was drawn into a pipette tip containing 25 μliters of 2% SDS, and the mixture was immediately ejected into a well of a 0.8% agarose TBE gel containing 0.5 μliter/milliliter ethidium bromide. The gel was electrophoresed for 1 hour at 65 volts, destained in water, and photographed under ultraviolet light. The lanes of the gel were cut into three approximately equal portions. The first portion included the gel well and the first 2 millimeters of the running lane. The second and third pieces were the remainder of the lane. The gel portions were melted in glass scintillation vials and mixed with a 20 milliliter of scintillation cocktail and counted in a scintillation counter. The amount of fragmented DNA (DNA in the second and third gel pieces) was expressed as a percentage of the total counts recovered in the lane. […]

Experiment [5] relates to WEHI 231 cells. Put plainly: CpG-ODN-induced IL-6 synthesis (ELISA). Particulars: 10 nM. The format is cell-based, mouse.
Procedure: The assay of IL6 was generally carried out as follows. […] After 24 hours, the IL-6 content of the supernatant was assayed by enzyme-linked immunoassay using two monoclonal antibodies in a sandwich technique as described by the manufacturer, using standards supplied (PharMingen, San Diego Calif.).
The test system of experiment [6] is WEHI 231 cells. Description: Protection by ODN 1760 against C2-ceramide-induced inhibition of [3H] thymidine uptake. It counts as cell-based, mouse. Particulars: 0.1 μM quinacrine, 6 μg/mL ODN. The protocol: (§1) The assay of [^3H] Thymidine incorporation was carried out as follows. WEHI 231 cells (200 μL at 2×10^5/milliliter, in duplicate or triplicate) were incubated in a 96-well plate (Costar, Cambridge Mass.). Additions were made as indicated. After incubating for 16 hours, 0.5 μCi [methyl-^3H] thymidine (2 Ci/millimole, DuPont NEN, Boston Mass.) was added to each well, and the cells were incubated for another 4 hours. Cellular DNA was then captured onto glass fiber filters (Whatman 934AH) using a cell harvester (Brandel, Gaithersberg Md.). The filters were dried, placed into plastic scintillation vials with 10 milliliters of scintillation cocktail (EconoSafe, Research Products International, Mount Prospect Ill.), and counted in a liquid scintillation counter (Beckman LS-3133 T). The ^3H recovered on the filter was expressed as a fraction of the ^3H added. In a typical experiment, WEHI 231 cells incorporate about 15% of added ^3H.
Referring to the experiments summarized in FIG. 6, WEHI 231 cells were incubated with C2-ceramide as indicated with or without 6 μgrams/milliliter ODN and 0.1 μM quinacrine and thymidine incorporation was estimated. Referring to the experiments summarized in FIG. 7, WEHI 231 cells were prelabeled with 0.5 μCi/milliliter [^3H] thymidine for 3 hours, and resuspended in fresh medium containing 10 nM thapsigargin. […]

In a further experiment the test system is human mononuclear cells. Put plainly: ODN 1760-induced [3H] thymidine incorporation in human mononuclear cells. The format is cell-based. The settings on record: unfractionated human peripheral blood cells, four days. Here is the method: [^3H] thymidine incorporation (18 hour pulse) was then measured. […] Thymidine incorporation for untreated samples was less than 0.05%. Samples from three donors were averaged, and error bars indicate 1 standard deviation.

The subject of a further experiment is 7TD1 cells. Description: Inhibition of 7TD1 cell growth. The format is cell-based, mouse. Here is the method:
One particularly useful cell line for the assay of immunostimulatory DNA action is the mouse-mouse hybridoma plasma cell line 7TD1(ATTC #CRL 1851), which requires exoqenous IL-6 for growth, and has been used to characterize and assay IL-6 (Papadopolous et al., 1995. J. Clin. Lab. Anal. 9:234-7; Krakauer, 1993. J. Immunoassay 14:267-77).
The 7TD1 cells were grown in RPMI 1640 supplemented with 10% fetal bovine serum (heat inactivated at 65° C., 1 hour), 0.3 grams/Liter L-glutamine, 50 milligrams/Liter gentamycin, 0.05 mM 2-mercaptoethanol, and 10 units per milliliter murine IL-6 in a 37° C. humid atmosphere with 5% CO2. Viable 7TD1 cells were counted in a hemocytometer chamber in duplicate after dilution with 0.4% trypan blue.
The 7TD1 cells were incubated for five days and were washed twice with medium to remove IL-6, and resuspended at 2×10^4 per milliliter in medium. Cell counts were performed and the percent inhibition of growth was computed. The term “anti” refers to 40 nanograms/milliliter neutralizing antibody to IL-6.

Experiment [7] has as its system WEHI 231 cells. Put plainly: Protection by lipopolysaccharide against α-sIgM-induced inhibition of [3H] thymidine uptake. The format is cell-based, mouse. Particulars: 0.1 μM quinacrine, concentration that completely reversed the effect of ODN 1760. Here is the method: as §1
In the experiments summarized in FIG. 5, the influence of LPS on α-sIgM-induced suppression of thymidine incorporation was examined.
Lipopolysaccharide (LPS) was added at the indicated concentration with or without 10 μgrams/milliliter α-sIgM and 0.1 μM quinacrine. The small degree of protection against α-sIgM-induced inhibition of [^3H] thymidine uptake afforded by LPS is not influenced by quinacrine.

Setting [8] is: 6 μg/mL ODN 1760, 0.1 μM compound.
Where [9] appears, read: 6 μg/mL ODN 1760, 0.3 μM compound.
Where [10] appears, read: 6 μg/mL ODN 1760, 1 μM compound.
Setting [11] is: 10 μg/mL IL-6 + 0.1 μM compound.
The mark [12] stands for this setting: 10 μg/mL IL-6 + 0.3 μM compound.

Take `CCN(CC)CCCC(C)Nc1c2ccc(Cl)cc2nc2ccc(OC)cc12` (centres unmarked) [quinacrine]: the “Change of potency on inhibition of the multi-drug resistance pump” value in [1] is “magnified”. The “Influence of compound alone on cell growth and on cell death induced by α-sIgM” value in the experiment with WEHI 231 cells [2] is reported as “influenced neither cell growth nor cell death”. The “Reversal of ODN 1760 protection, cell count over a period of three days (FIG. 2a)” value in the experiment on WEHI 231 cells [2] (6 μg/mL ODN 1760, 10 μg/mL α-sIgM) is recorded as “reversed this protection”. For the same molecule, the “Effect on ODN 1760-induced IL-6 production (FIG. 9)” value in experiment [3] was “inhibited”. For the same molecule, the “Block of ODN 1760 protection against thapsigargin-induced DNA fragmentation (FIG. 7)” value in the experiment on WEHI 231 cells [4] is listed as “blocked the protective effect”. The “Reversal of ODN 1760 effect on IL-6 elaboration” value with WEHI 231 cells [5] is reported as “completely reversed”. For the same molecule, the “Block of ODN 1760 protection against C2-ceramide (FIG. 6)” value with WEHI 231 cells [6] is on record as “blocked this protective effect”. Further, the “Effect on ODN 1760-induced thymidine incorporation (FIG. 8)” value with human mononuclear cells was “inhibited”. Besides, the “7TD1 cells/μL” value in the experiment with 7TD1 cells (setting [8]) is 20 cells/μL; in the experiment on 7TD1 cells (setting [9]), 20 cells/μL; with 7TD1 cells (setting [10]), 15 cells/μL; in the experiment with 7TD1 cells (setting [11]), 707 cells/μL; in the experiment on 7TD1 cells (setting [12]), 595 cells/μL; in the experiment on 7TD1 cells (10 μg/mL IL-6 + 1 μM compound) it was 587 cells/μL. Also, the “% Growth Inhibition” value with 7TD1 cells (setting [8]) amounted to 95%; in the experiment on 7TD1 cells (setting [9]), 95%; with 7TD1 cells (setting [10]), 96.3%; with 7TD1 cells (setting [11]) it was 20.2%; with 7TD1 cells (setting [12]) it was 32.9%; with 7TD1 cells (10 μg/mL IL-6 + 1 μM compound) it was 33.8%. Moreover, the “Effect on IL-6-induced growth” value in the experiment with 7TD1 cells (7TD1 cells, IL-6) is given as “little effect”. Also, the “Effect on growth stimulation by CpG-ODN” value in the experiment with 7TD1 cells (7TD1 cells, ODN 1760) was “blocked”. Also, the “Effect on the action of LPS (FIG. 5)” value in the experiment with WEHI 231 cells [7] was “no effect”.
